Laboratory results: US4013777A, “Bis-phenoxypropanolamines” (SmithKline Corporation, priority 1975, dated 1977)
Values after ≈ are worked out from the molar mass of the structure shown.

Legend:
[1] = test system: guinea pig tracheal chain preparations; assay: spontaneous tone of guinea pig tracheal chain (ring) preparation, relaxant effect; settings: for absolute separation ratio: atrial ED25 versus tracheal ED50, guinea pig in vitro preparations
Excerpt: (§1) Two in vitro test systems used for determining selective β-stimulant activity are: (1) effect on spontaneous tone of guinea pig tracheal chain preparations as a measure of β-stimulant (direct relaxant) effect on airway smooth muscle, and (2) effect on rate of spontaneously beating right atria of the guinea pig as a measure of β-stimulant effect on cardiac muscle.

[2] = test system: right atria of the guinea pig; assay: rate of spontaneously beating guinea pig right atria; settings: Cavia porcellus; in vitro; β-stimulant effect on cardiac muscle; read-out: ED25, increasing the rate of contraction of guinea pig right atria
Excerpt: as §1

Row | SMILES | absolute separation ratio [1] | EC25 [2] [µg/mL] | EC50 ([1]; Cavia porcellus, in vitro, β-stimulant (direct relaxant) effect on airway smooth muscle, read-out: ED50, relaxes the spontaneous tone of guinea pig tracheal ring preparation) [µg/mL] | improvement of absolute separation ratio compared to d,l isoproterenol ([1]; versus d,l isoproterenol in similar in vitro preparations) [fold]
1 | CC(C)NCC(O)c1ccc(O)c(O)c1 (racemic) [d,l isoproterenol, reference compound] | 0.5 | – | – | –
2 | Oc1ccc(OCC(O)CNCCCCCCNCC(O)COc2ccc(O)c(O)c2)cc1O (centres unmarked) [N,N'-bis[3,4-dihydroxyphenoxy)-2-hydroxypropyl]-1,6-diaminohexane] | 7 | 0.029 (≈ 0.0603 µM) | 0.00414 (≈ 0.00861 µM) | 14
